Test results from patent US20070128217A1 (priority 2003, published 2007).

Tests used:
[1] = tested on: rabbit serum obtained by immunizing a rabbit with the SARS-CoV strain Frankfurt 1; type: binding; parameters: Binding of a rabbit serum to linear peptides / Binding of a rabbit serum to looped peptides / Rabbit serum linear peptides / Rabbit serum looped peptides / Binding of a rabbit serum to linear peptides of protein N of SARS-CoV Urbani (Rabbit serum linear peptides) / Binding of a rabbit serum to looped/cyclic peptides of protein N of SARS-CoV Urbani (Rabbit serum looped peptides): unit not given here
[2] = tested on: control sera (pooled serum of ten healthy LUMC hospital workers; commercial negative donor pooled serum from the Dutch bloodbank); type: binding, human; parameters: Binding of Control serum LUMC to linear peptides / Binding of Control serum Blood-bank to linear peptides / Binding of Control serum LUMC to looped peptides / Binding of Control Serum Blood-Bank to Looped peptides / Binding of Control serum LUMC to linear peptides of the protein M of SARS-CoV Urbani / Binding of Control serum Blood-bank to linear peptides of the protein M of SARS-CoV Urbani / Binding of Control serum LUMC to looped peptides of the protein M of SARS-CoV Urbani / Binding of Control Serum Blood-Bank to Looped peptides of the protein M of SARS-CoV Urbani: unit not given here
[3] = tested on: antibodies in sera from SARS patients (sera 1a, 1b, 2, 6, 37, 62, London, SARS-yellow, SARS-green); type: binding, human; parameters: Binding of serum 6 to linear peptides of protein X1 of SARS-CoV Urbani / Binding of serum 37 to linear peptides of protein X1 of SARS-CoV Urbani / Binding of serum 6 to looped/cyclic peptide (PEPSCAN-ELISA) / Binding of serum 37 to looped/cyclic peptide (PEPSCAN-ELISA) / Binding of serum 37 to looped/cyclic peptides of protein X1 of SARS-CoV Urbani / Binding of serum 6 to linear peptides of protein X2 / Binding of serum 37 to linear peptides of protein X2 / Binding of serum 37 to looped/cyclic peptides of protein X2 of SARS-CoV Urbani / Binding of serum 6 to linear peptides of protein M of SARS-CoV Urbani / Binding of serum 37 to linear peptides of protein M of SARS-CoV Urbani / Binding of serum 6 to looped/cyclic peptides of protein M of SARS-CoV Urbani / Binding of serum 37 to looped/cyclic peptides of protein M of SARS-CoV Urbani / Binding of serum 6 to linear peptides of protein X3 of SARS-CoV Urbani / Binding of serum 37 to linear peptides of protein X3 of SARS-CoV Urbani / Binding of serum 37 to looped/cyclic peptides of protein X3 of SARS-CoV Urbani / Binding of serum 6 to linear peptides of protein X4 of SARS-CoV Urbani / Binding of serum 37 to linear peptides of protein X4 of SARS-CoV Urbani / Binding of serum 37 to looped/cyclic peptides of protein X4 of SARS-CoV Urbani / Binding of serum 6 to linear peptides of protein X5 of SARS-CoV Urbani / Binding of serum 37 to linear peptides of protein X5 of SARS-CoV Urbani / Binding of serum 37 to looped/cyclic peptides of protein X5 of SARS-CoV Urbani / Binding of serum 6 to linear peptides of protein N of SARS-CoV Urbani / Binding of serum 37 to linear peptides of protein N of SARS-CoV Urbani / Binding of serum 6 to linear peptide (PEPSCAN-ELISA) / Binding of serum 1a to looped/cyclic peptides of protein N of SARS-CoV Urbani / Binding of serum 1b to looped/cyclic peptides of protein N of SARS-CoV Urbani / Binding of serum 2 to looped/cyclic peptides of protein N of SARS-CoV Urbani / Binding of serum 6 to looped/cyclic peptides of protein N of SARS-CoV Urbani / Binding of serum 37 to looped/cyclic peptides of protein N of SARS-CoV Urbani / Binding of serum 62 to looped/cyclic peptides of protein N of SARS-CoV Urbani / Binding of serum London to looped/cyclic peptides of protein N of SARS-CoV Urbani / Binding of serum SARS-green to looped/cyclic peptides of protein N of SARS-CoV Urbani: unit not given here

QVTIAEILIIIMRTF
Rabbit serum linear peptides [1]: 0.3
Rabbit serum looped peptides [1]: 0.6
Binding of Control Serum Blood-Bank to Looped peptides of the protein X3 of SARS-CoV Urbani [2]: 0.9
Binding of Control serum Blood-bank to linear peptides of the protein X3 of SARS-CoV Urbani [2]: 0.7
Binding of Control serum LUMC to linear peptides of the protein X3 of SARS-CoV Urbani [2]: 0.7
Binding of Control serum LUMC to looped peptides of the protein X3 of SARS-CoV Urbani [2]: 0.7
Binding of serum 1a to linear peptides of protein X3 of SARS-CoV Urbani [3]: 0.7
Binding of serum 1a to looped/cyclic peptides of protein X3 of SARS-CoV Urbani [3]: 0.7
Binding of serum 1b to linear peptides of protein X3 of SARS-CoV Urbani [3]: 0.4
Binding of serum 1b to looped/cyclic peptides of protein X3 of SARS-CoV Urbani [3]: 0.3
Binding of serum 2 to linear peptides of protein X3 of SARS-CoV Urbani [3]: 0.5
Binding of serum 2 to looped/cyclic peptides of protein X3 of SARS-CoV Urbani [3]: 0.5
Binding of serum 6 to linear peptides of protein X3 of SARS-CoV Urbani [3]: 0.5
Binding of serum 6 to looped/cyclic peptides of protein X3 of SARS-CoV Urbani [3]: 0.5
Binding of serum 37 to linear peptides of protein X3 of SARS-CoV Urbani [3]: 0.4
Binding of serum 37 to looped/cyclic peptides of protein X3 of SARS-CoV Urbani [3]: 0.6
Binding of serum 62 to linear peptides of protein X3 of SARS-CoV Urbani [3]: 0.7
Binding of serum 62 to looped/cyclic peptides of protein X3 of SARS-CoV Urbani [3]: 0.4
Binding of serum London to linear peptides of protein X3 of SARS-CoV Urbani [3]: 0.7
Binding of serum London to looped/cyclic peptides of protein X3 of SARS-CoV Urbani [3]: 0.2
Binding of serum SARS-green to linear peptides of protein X3 of SARS-CoV Urbani [3]: 0.4
Binding of serum SARS-green to looped/cyclic peptides of protein X3 of SARS-CoV Urbani [3]: 0.2
Binding of serum SARS-yellow to linear peptides of protein X3 of SARS-CoV Urbani [3]: 0.2
Binding of serum SARS-yellow to looped/cyclic peptides of protein X3 of SARS-CoV Urbani [3]: 0.7

LHKLLQTLVLKMLHS
Binding of a rabbit serum to linear peptides [1]: 0.2
Binding of a rabbit serum to looped peptides [1]: 0.4
Binding of Control Serum Blood-Bank to Looped peptides [2]: 0.8
Binding of Control serum Blood-bank to linear peptides [2]: 0.5
Binding of Control serum LUMC to linear peptides [2]: 0.3
Binding of Control serum LUMC to looped peptides [2]: 0.7
Binding of serum 1a to linear peptides of protein X2 [3]: 0.6
Binding of serum 1a to looped/cyclic peptides of protein X2 of SARS-CoV Urbani [3]: 0.6
Binding of serum 1b to linear peptides of protein X2 [3]: 0.0
Binding of serum 1b to looped/cyclic peptides of protein X2 of SARS-CoV Urbani [3]: 0.5
Binding of serum 2 to linear peptides of protein X2 [3]: 0.4
Binding of serum 2 to looped/cyclic peptides of protein X2 of SARS-CoV Urbani [3]: 0.4
Binding of serum 6 to linear peptides of protein X2 [3]: 0.3
Binding of serum 6 to looped/cyclic peptides of protein X2 of SARS-CoV Urbani [3]: 0.6
Binding of serum 37 to linear peptides of protein X2 [3]: 0.4
Binding of serum 37 to looped/cyclic peptides of protein X2 of SARS-CoV Urbani [3]: 0.4
Binding of serum 62 to linear peptides of protein X2 [3]: 0.5
Binding of serum 62 to looped/cyclic peptides of protein X2 of SARS-CoV Urbani [3]: 0.6
Binding of serum London to linear peptides of protein X2 [3]: 0.4
Binding of serum London to looped/cyclic peptides of protein X2 of SARS-CoV Urbani [3]: 1.0
Binding of serum SARS-green to linear peptides of protein X2 [3]: 0.6
Binding of serum SARS-green to looped/cyclic peptides of protein X2 of SARS-CoV Urbani [3]: 0.4
Binding of serum SARS-yellow to linear peptides of protein X2 [3]: 0.3
Binding of serum SARS-yellow to looped/cyclic peptides of protein X2 of SARS-CoV Urbani [3]: 0.7

THITMTTVYHITVSQ
Binding of a rabbit serum to linear peptides [1]: 0.7
Binding of a rabbit serum to looped peptides [1]: 0.4
Binding of Control Serum Blood-Bank to Looped peptides [2]: 0.6
Binding of Control serum Blood-bank to linear peptides [2]: 0.3
Binding of Control serum LUMC to linear peptides [2]: 0.8
Binding of Control serum LUMC to looped peptides [2]: 0.7
Binding of serum 1a to linear peptides of protein X2 [3]: 0.6
Binding of serum 1a to looped/cyclic peptides of protein X2 of SARS-CoV Urbani [3]: 0.6
Binding of serum 1b to linear peptides of protein X2 [3]: 0.5
Binding of serum 1b to looped/cyclic peptides of protein X2 of SARS-CoV Urbani [3]: 0.6
Binding of serum 2 to linear peptides of protein X2 [3]: 0.4
Binding of serum 2 to looped/cyclic peptides of protein X2 of SARS-CoV Urbani [3]: 0.3
Binding of serum 6 to linear peptides of protein X2 [3]: 0.6
Binding of serum 6 to looped/cyclic peptides of protein X2 of SARS-CoV Urbani [3]: 0.2
Binding of serum 37 to linear peptides of protein X2 [3]: 0.7
Binding of serum 37 to looped/cyclic peptides of protein X2 of SARS-CoV Urbani [3]: 0.5
Binding of serum 62 to linear peptides of protein X2 [3]: 0.4
Binding of serum 62 to looped/cyclic peptides of protein X2 of SARS-CoV Urbani [3]: 0.6
Binding of serum London to linear peptides of protein X2 [3]: 0.4
Binding of serum London to looped/cyclic peptides of protein X2 of SARS-CoV Urbani [3]: 0.2
Binding of serum SARS-green to linear peptides of protein X2 [3]: 0.4
Binding of serum SARS-green to looped/cyclic peptides of protein X2 of SARS-CoV Urbani [3]: 0.3
Binding of serum SARS-yellow to linear peptides of protein X2 [3]: 0.5
Binding of serum SARS-yellow to looped/cyclic peptides of protein X2 of SARS-CoV Urbani [3]: 0.5

FMRFFTLGSITAQPV
Binding of a rabbit serum to linear peptides [1]: 0.3
Binding of a rabbit serum to looped peptides [1]: 0.4
Binding of Control Serum Blood-Bank to Looped peptides [2]: 0.6
Binding of Control serum Blood-bank to linear peptides [2]: 0.7
Binding of Control serum LUMC to linear peptides [2]: 0.7
Binding of Control serum LUMC to looped peptides [2]: 0.6
Binding of serum 1a to linear peptides of protein X1 of SARS-CoV Urbani [3]: 0.8
Binding of serum 1a to looped/cyclic peptide (PEPSCAN-ELISA) [3]: 0.5
Binding of serum 1b to linear peptides of protein X1 of SARS-CoV Urbani [3]: 0.6
Binding of serum 1b to looped/cyclic peptide (PEPSCAN-ELISA) [3]: 0.3
Binding of serum 2 to linear peptides of protein X1 of SARS-CoV Urbani [3]: 0.8
Binding of serum 2 to looped/cyclic peptide (PEPSCAN-ELISA) [3]: 0.4
Binding of serum 6 to linear peptides of protein X1 of SARS-CoV Urbani [3]: 0.5
Binding of serum 6 to looped/cyclic peptide (PEPSCAN-ELISA) [3]: 0.4
Binding of serum 37 to linear peptides of protein X1 of SARS-CoV Urbani [3]: 0.7
Binding of serum 37 to looped/cyclic peptide (PEPSCAN-ELISA) [3]: 0.5
Binding of serum 62 to linear peptides of protein X1 of SARS-CoV Urbani [3]: 0.7
Binding of serum 62 to looped/cyclic peptide (PEPSCAN-ELISA) [3]: 0.5
Binding of serum London to linear peptides of protein X1 of SARS-CoV Urbani [3]: 0.3
Binding of serum London to looped/cyclic peptide (PEPSCAN-ELISA) [3]: 0.2
Binding of serum SARS-green to linear peptides of protein X1 of SARS-CoV Urbani [3]: 0.3
Binding of serum SARS-green to looped/cyclic peptide (PEPSCAN-ELISA) [3]: 0.2
Binding of serum SARS-yellow to linear peptides of protein X1 of SARS-CoV Urbani [3]: 0.7
Binding of serum SARS-yellow to looped/cyclic peptide (PEPSCAN-ELISA) [3]: 0.3

YHITVSQIQLSLLKV
Binding of a rabbit serum to linear peptides [1]: 0.8
Binding of a rabbit serum to looped peptides [1]: 0.3
Binding of Control Serum Blood-Bank to Looped peptides [2]: 0.3
Binding of Control serum Blood-bank to linear peptides [2]: 0.6
Binding of Control serum LUMC to linear peptides [2]: 0.7
Binding of Control serum LUMC to looped peptides [2]: 0.4
Binding of serum 1a to linear peptides of protein X2 [3]: 0.6
Binding of serum 1a to looped/cyclic peptides of protein X2 of SARS-CoV Urbani [3]: 0.4
Binding of serum 1b to linear peptides of protein X2 [3]: 0.5
Binding of serum 1b to looped/cyclic peptides of protein X2 of SARS-CoV Urbani [3]: 0.4
Binding of serum 2 to linear peptides of protein X2 [3]: 0.5
Binding of serum 2 to looped/cyclic peptides of protein X2 of SARS-CoV Urbani [3]: 0.4
Binding of serum 6 to linear peptides of protein X2 [3]: 0.5
Binding of serum 6 to looped/cyclic peptides of protein X2 of SARS-CoV Urbani [3]: 0.1
Binding of serum 37 to linear peptides of protein X2 [3]: 0.7
Binding of serum 37 to looped/cyclic peptides of protein X2 of SARS-CoV Urbani [3]: 0.4
Binding of serum 62 to linear peptides of protein X2 [3]: 0.5
Binding of serum 62 to looped/cyclic peptides of protein X2 of SARS-CoV Urbani [3]: 0.5
Binding of serum London to linear peptides of protein X2 [3]: 0.4
Binding of serum London to looped/cyclic peptides of protein X2 of SARS-CoV Urbani [3]: 0.2
Binding of serum SARS-green to linear peptides of protein X2 [3]: 0.1
Binding of serum SARS-green to looped/cyclic peptides of protein X2 of SARS-CoV Urbani [3]: 0.3
Binding of serum SARS-yellow to linear peptides of protein X2 [3]: 0.6
Binding of serum SARS-yellow to looped/cyclic peptides of protein X2 of SARS-CoV Urbani [3]: 0.4
